# Laboratory results published in ChEMBL document CHEMBL3272295, “Drugs derived from cannabinoids. 5. delta6a,10a-Tetrahydrocannabinol and heterocyclic analogs containing aromatic side chains” (J Med Chem, 1976).
# Activity calls are given as the source filed them. The rule behind the calls is not given here.
# Assays:
# Rattus norvegicus [1] = test: Analgesic activity in po dosed Sprague-Dawley rat after 15 to 90 mins by tail flick test; type: functional
# Mus musculus [2] = test: Analgesic activity in po dosed mouse assessed as inhibition of acetic acid-induced writhing administered 30 mins prior to acetic acid challenge measured after 5 mins for 20 mins; type: functional
# Rattus norvegicus [3] = test: Antianxiety activity in Long-Evans rat assessed as reduction in motor activity at 10 mg/kg, po after 2 hrs relative to vehicle-treated control; type: functional; parameters: scale not given: the % may be the effect or the level left
# Mus musculus [4] = test: Antianxiety activity in albino BALB/cJ mouse assessed as reduction in footshock-induced fighting behavior at 10 mg/kg, po after 30 to 90 mins; type: functional; parameters: scale not given: the % may be the effect or the level left
# Rattus norvegicus [5] = test: Antianxiety activity in Long-Evans rat assessed as reduction in motor activity at 5 mg/kg, po after 2 hrs relative to vehicle-treated control; type: functional; parameters: scale not given: the % may be the effect or the level left
# [6] = Acute toxicity in po dosed mouse; type: organism-based; conditions: in vivo
# Rattus norvegicus [7] = test: Antipsychotic activity in rat assessed as reduction of methamphetamine-induced hyperactivity at 5 mg/kg, po administered prior to methamphetamine challenge relative to vehicle-treated control; type: functional; parameters: scale not given: the % may be the effect or the level left
# Mus musculus [8] = test: Analgesic activity in mouse assessed as inhibition of acetic acid-induced writhing at 10 mg/kg, po administered 30 mins prior to acetic acid challenge measured after 5 mins for 20 mins; type: functional
# Rattus norvegicus [9] = test: Antihypertensive activity in spontaneously hypertensive rat model assessed as reduction in blood pressure at 1 mg/kg, po after 24 hrs; type: functional; parameters: scale not given: the % may be the effect or the level left
# Rattus norvegicus [10] = test: Antihypertensive activity in spontaneously hypertensive rat model assessed as reduction in blood pressure at 3 mg/kg, po after 24 hrs; type: functional; parameters: scale not given: the % may be the effect or the level left
# Rattus norvegicus [11] = test: Antihypertensive activity in spontaneously hypertensive rat model assessed as reduction in blood pressure at 1 mg/kg, po after 3 hrs; type: functional; parameters: scale not given: the % may be the effect or the level left
# Mus musculus [12] = test: Antianxiety activity in albino BALB/cJ mouse assessed as reduction in footshock-induced fighting behavior at 5 mg/kg, po after 30 to 90 mins; type: functional; parameters: scale not given: the % may be the effect or the level left
# Rattus norvegicus [13] = test: Antihypertensive activity in spontaneously hypertensive rat model assessed as reduction in blood pressure at 3 mg/kg, po after 3 hrs; type: functional; parameters: scale not given: the % may be the effect or the level left
# Rattus norvegicus [14] = test: Antipsychotic activity in rat assessed as reduction of methamphetamine-induced hyperactivity at 10 mg/kg, po administered prior to methamphetamine challenge relative to vehicle-treated control; type: functional; parameters: scale not given: the % may be the effect or the level left
# Rattus norvegicus [15] = test: Antipsychotic activity in rat assessed as reduction of methamphetamine-induced hyperactivity at 20 mg/kg, po administered prior to methamphetamine challenge relative to vehicle-treated control; type: functional; parameters: scale not given: the % may be the effect or the level left
# Rattus norvegicus [16] = organism: Rattus norvegicus; test: animal or person; type: functional; conditions: Charles River, route oral
# Description: Antidiarrheal activity in Charles River rat assessed as inhibition of castor oil-induced diarrhea by measuring protected animals at 0.5 mg/kg, po administered 1 hr prior to castor oil challenge measured after 1 hr relative to vehicle-treated control
Compound,Activity (Rattus norvegicus [1]),inhibition (Mus musculus [2]),further results
CC(CCc1ccc(F)cc1)c1cc(O)c2c(c1)OC(C)(C)C1=C2CN(Cc2ccccc2)CC1 (stereo unspecified),inactive,inactive,
CC1CCc2c(c3c(O)cc(C(C)CCCc4ccc(F)cc4)cc3oc2=O)C1 (stereo unspecified),inactive,inactive,
CC(CCc1ccc(F)cc1)C(C)c1cc(O)c2c(c1)OC(C)(C)C1=C2CN(Cc2ccccc2)CC1 (stereo unspecified),inactive,inactive,
CNC1=Nc2ccc(Cl)cc2C(c2ccccc2)=[N+]([O-])C1.Cl [CHLORDIAZEPOXIDE HYDROCHLORIDE],,,Activity (Rattus norvegicus [3]): 54%; Activity (Mus musculus [4]): 53%; Activity (Rattus norvegicus [5]): 26%
CC(CCCc1ccc(F)cc1)c1cc(O)c2c(c1)OC(C)(C)C1=C2CNCC1 (stereo unspecified),inactive,inactive,
Cc1ccc(CCCC(C)c2cc(O)c3c4c(c(=O)oc3c2)CCN(Cc2ccccc2)C4)cc1 (stereo unspecified),inactive,inactive,
C#CCN1CCC2=C(C1)c1c(OC(=O)C(C)CCN3CCOCC3)cc(C(C)CCCc3ccc(F)cc3)cc1OC2(C)C.Cl (stereo unspecified),,,LD50 [6]: ≥ 1000 mg/kg; ED50 (Rattus norvegicus [1]): 7 mg/kg; Activity (Rattus norvegicus [7]): 24%; Activity (Mus musculus [4]): 26%; Activity (Rattus norvegicus [5]): 71%; ED50 (Mus musculus [2]): 7.2 mg/kg
CCCCCc1cc(O)c2c(c1)OC(C)(C)C1=C2CNCC1,inactive,inactive,
CC1CCc2c(c3c(O)cc(C(C)CCCCc4ccc(F)cc4)cc3oc2=O)C1 (stereo unspecified),inactive,inactive,
CC1CCc2c(c3c(O)cc(CCCCCc4ccc(F)cc4)cc3oc2=O)C1 (stereo unspecified),inactive,inactive,
CC1CCc2c(c3c(O)cc(C(C)CCCc4ccccc4)cc3oc2=O)C1 (stereo unspecified),inactive,inactive,
CC(CCCCc1ccc(F)cc1)c1cc(O)c2c3c(c(=O)oc2c1)CCN(Cc1ccccc1)C3 (stereo unspecified),inactive,inactive,
CC1CCC2=C(C1)c1c(O)cc(CCCCCc3ccc(F)cc3)cc1OC2(C)C (stereo unspecified),,,inhibition in vivo at 10 mg/kg (Mus musculus [8]): 41%; LD50 [6]: ≥ 1000 mg/kg; Activity (Rattus norvegicus [9]): 9%; Activity (Rattus norvegicus [10]): 17%; Activity (Rattus norvegicus [11]): 6%; Activity (Rattus norvegicus [7]): 39%; Activity (Rattus norvegicus [5]): 16%; Activity (Mus musculus [12]): 36%; Activity (Rattus norvegicus [13]): 27%
C#CCN1CCC2=C(C1)c1c(OC(=O)CCCN3CCOCC3)cc(C(C)CCCc3ccc(F)cc3)cc1OC2(C)C.Cl.Cl (stereo unspecified),,,LD50 [6]: ≥ 1000 mg/kg; ED50 (Rattus norvegicus [1]): 5 mg/kg; Activity (Rattus norvegicus [7]): 33%; Activity (Mus musculus [4]): 0%; Activity (Rattus norvegicus [5]): 48%; ED50 (Mus musculus [2]): 9 mg/kg
Cc1ccc(CCCC(C)c2cc(O)c3c(c2)OC(C)(C)C2=C3CNCC2)cc1 (stereo unspecified),inactive,inactive,
CC(CCc1ccc(F)cc1)C(C)c1cc(O)c2c3c(c(=O)oc2c1)CCN(Cc1ccccc1)C3 (stereo unspecified),inactive,inactive,
CC(CCc1ccc(F)cc1)c1cc(O)c2c3c(c(=O)oc2c1)CCN(Cc1ccccc1)C3 (stereo unspecified),inactive,inactive,
CC(CCCc1ccc(F)cc1)c1cc(O)c2c3c(c(=O)oc2c1)SCC3C (stereo unspecified),inactive,inactive,
CC(CCCc1ccc(F)cc1)c1cc(O)c2c3c(c(=O)oc2c1)CCN(Cc1ccccc1)C3 (stereo unspecified),inactive,inactive,
CC1CCC2=C(C1)c1c(O)cc(C(C)C(C)Cc3ccc(F)cc3)cc1OC2(C)C (stereo unspecified),,,inhibition in vivo at 10 mg/kg (Mus musculus [8]): 38%; Activity (Rattus norvegicus [14]): 28%; LD50 [6]: ≥ 1000 mg/kg; Activity (Rattus norvegicus [9]): 9%; Activity (Rattus norvegicus [10]): 24%; Activity (Rattus norvegicus [15]): 56%; Activity (Rattus norvegicus [11]): 22%; Activity (Mus musculus [4]): 4%; Activity (Rattus norvegicus [5]): 66%; Activity (Rattus norvegicus [13]): 21%
CC(CCCc1ccc(F)cc1)C(C)c1cc(O)c2c(c1)OC(C)(C)C1=C2CN(Cc2ccccc2)CC1 (stereo unspecified),inactive,inactive,

Compound,Activity (Rattus norvegicus [1]),inhibition (Mus musculus [2]),further results
Cc1ccc(CCCC(C)c2cc(O)c3c4c(c(=O)oc3c2)CCC(C)C4)cc1 (stereo unspecified),inactive,inactive,
CC1CCc2c(c3c(O)cc(C(C)CCCN(C)C)cc3oc2=O)C1 (stereo unspecified),inactive,inactive,
CCCCCc1cc(O)c2c(c1)OC(C)(C)C1=C2CN(Cc2ccccc2)CC1,inactive,inactive,
CC(CCc1ccc(F)cc1)C(C)c1cc(O)c2c(c1)OC(C)(C)C1=C2CNCC1 (stereo unspecified),inactive,inactive,
Cc1ccc(CCCC(C)c2cc(O)c3c(c2)OC(C)(C)C2=C3CC(C)CC2)cc1 (stereo unspecified),,,inhibition in vivo at 0.5 mg/kg (Rattus norvegicus [16]): 90%; inhibition in vivo at 10 mg/kg (Mus musculus [8]): 30%; LD50 [6]: ≥ 1000 mg/kg; Activity (Rattus norvegicus [9]): 0%; Activity (Rattus norvegicus [10]): 16%; Activity (Rattus norvegicus [15]): 72%; Activity (Rattus norvegicus [11]): 0%; Activity (Rattus norvegicus [7]): 66%; Activity (Mus musculus [4]): 10%; Activity (Rattus norvegicus [5]): 16%; Activity (Rattus norvegicus [13]): 26%
CC1CCc2c(c3c(O)cc(C(C)C(C)CCCc4ccc(F)cc4)cc3oc2=O)C1 (stereo unspecified),inactive,inactive,
CC(CCCCc1ccc(F)cc1)c1cc(O)c2c(c1)OC(C)(C)C1=C2CNCC1 (stereo unspecified),inactive,inactive,
CC(CCCCc1ccc(F)cc1)c1cc(O)c2c(c1)OC(C)(C)C1=C2CN(Cc2ccccc2)CC1 (stereo unspecified),inactive,inactive,
C#CCN1CCC2=C(C1)c1c(O)cc(C(C)C(C)CCCc3ccc(F)cc3)cc1OC2(C)C (stereo unspecified),,,inhibition in vivo at 0.5 mg/kg (Rattus norvegicus [16]): 0%; inhibition in vivo at 10 mg/kg (Mus musculus [8]): 35%; LD50 [6]: ≥ 1000 mg/kg; Activity (Rattus norvegicus [7]): 0%; Activity (Rattus norvegicus [5]): 46%; Activity (Mus musculus [12]): 23%
CC(CCCc1ccc(F)cc1)c1cc(O)c2c(c1)OC(C)(C)C1=C2CN(Cc2ccccc2)CC1 (stereo unspecified),inactive,inactive,
CC1CCc2c(c3c(O)cc(C(C)CCc4ccc(F)cc4)cc3oc2=O)C1 (stereo unspecified),inactive,inactive,
CC(CCCc1ccc(F)cc1)C(C)c1cc(O)c2c(c1)OC(C)(C)C1=C2CNCC1 (stereo unspecified),inactive,inactive,
CC(CCc1ccc(F)cc1)c1cc(O)c2c(c1)OC(C)(C)C1=C2CNCC1 (stereo unspecified),inactive,inactive,
CC(CCCc1ccc(F)cc1)C(C)c1cc(O)c2c3c(c(=O)oc2c1)CCN(Cc1ccccc1)C3 (stereo unspecified),inactive,inactive,
CC1CCc2c(c3c(O)cc(C(C)C(C)CCc4ccc(F)cc4)cc3oc2=O)C1 (stereo unspecified),inactive,inactive,
CCCCCc1cc(O)c2c3c(c(=O)oc2c1)CCN(Cc1ccccc1)C3,inactive,inactive,
CC(CCCc1ccc(F)cc1)c1cc(O)c2c3c(c(=O)oc2c1)CCC3 (stereo unspecified),inactive,inactive,
Cc1ccc(CCCC(C)c2cc(O)c3c(c2)OC(C)(C)C2=C3CN(Cc3ccccc3)CC2)cc1 (stereo unspecified),inactive,inactive,
CC(CCCc1ccc(F)cc1)c1cc(O)c2c3c(c(=O)oc2c1)N1CCC3CC1 (stereo unspecified),inactive,inactive,
CC1CCc2c(c3c(O)cc(C(C)C(C)CCc4ccncc4)cc3oc2=O)C1 (stereo unspecified),inactive,inactive,
CC1CCc2c(c3c(O)cc(C(C)C(C)Cc4ccc(F)cc4)cc3oc2=O)C1 (stereo unspecified),inactive,inactive,
